Results reported in BigSolDB 2.1.

N[C@@H](Cc1ccccc1)C(=O)O
solubility (mole fraction)
Conditions	283.15 K	288.15 K	293.15 K	298.15 K	303.15 K	308.15 K	313.15 K	318.15 K	323.15 K	328.15 K
in 1,4-dioxane	–	1.86e-05	2.37e-05	3.09e-05	3.5e-05	3.9e-05	4.53e-05	5.92e-05	8.28e-05	0.000118
in acetone	8.09e-05	0.000104	0.000131	0.000153	0.000176	0.000226	0.000293	0.00033	0.000375	–
in acetonitrile	7.9e-06	9.3e-06	1.12e-05	1.55e-05	1.8e-05	2.4e-05	3.67e-05	4.72e-05	5.69e-05	–
in ethanol	0.000125	0.000136	0.000151	0.000165	0.000177	0.000191	0.000208	0.000222	0.000231	–
in ethyl acetate	1.33e-05	1.49e-05	1.95e-05	2.06e-05	2.37e-05	3.38e-05	5.38e-05	9.29e-05	0.000194	–
in isobutanol	7.49e-05	7.77e-05	9.15e-05	0.000124	0.000158	0.000187	0.000224	0.000278	0.000323	–
in isopropanol	4.14e-05	5.16e-05	6.41e-05	7.29e-05	9.54e-05	0.00011	0.000122	0.00015	0.000178	–
in methanol	0.000742	0.000807	0.000866	0.000937	0.000996	0.00105	0.00112	0.00119	0.00126	–
in methyl acetate	4.3e-06	8.5e-06	1e-05	1.49e-05	1.93e-05	3.27e-05	4.41e-05	5.46e-05	6.4e-05	–
in n-butanol	5.9e-06	8.4e-06	9.8e-06	2.2e-05	3.48e-05	4.72e-05	5.85e-05	8.5e-05	0.000104	–
in n-propanol	2.83e-05	2.99e-05	3.34e-05	4.63e-05	5.58e-05	6.44e-05	8.96e-05	0.000141	0.000187	–
in water	0.00274	0.00289	0.00307	0.00321	0.00342	0.0036	0.00379	0.00404	0.00433	–
